Test system: P. methanolica cells (strain CBS6515, UV-mutagenized)
Test: Nystatin enrichment for auxotrophic mutants; titering of nystatin-treated versus control cells for colony forming units
Type: cell-based, Pichia methanolica
Details: 1 mg nystatin added to the remainder of a 500 ml culture in minimal broth with 5 g/L ammonium sulfate, incubated 1 hour with shaking
Experimental: Large-scale mutagenesis was then carried out using a 2-second UV exposure to provide about 20% killing. Cells were plated at approximately 10^4 cells/plate onto eight YEPD plates that were supplemented with 100 mg/L each of uracil, adenine, and leucine, which were added to supplement the growth of potential auxotrophs having the cognate deficiencies. Following UV exposure the plates were wrapped in foil and incubated overnight at 30° C. The following day the colonies on the plates (^~ 10^5 total) were resuspended in water and washed once with water. An amount of cell suspension sufficient to give an OD600 of 0.1-0.2 was used to inoculate 500 ml of minimal broth made with yeast nitrogen base without amino acids or ammonia, supplemented with 1% glucose and 400 μg/L biotin. The culture was placed in a 2.8 L baffled Bell flask and shaken vigorously overnight at 30° C. The following day the cells had reached an OD600 of ^~ 1.0-2.0. The cells were pelleted and resuspended in 500 ml of minimal broth supplemented with 5 g/L ammonium sulfate. The cell suspension was placed in a 2.8 L baffled Bell flask and shaken vigorously at 30° C. for 6 hours. 50 ml of the culture was set aside in a 250-ml flask as a control, and to the remainder of the culture was added 1 mg nystatin (Sigma Chemical Co., St. Louis, Mo.) to select for auxotrophic mutants (Snow, Nature 211:206-207, 1966). […]

C[C@@H]1[C@H](O)[C@@H](C)/C=C/C=C/CC/C=C/C=C/C=C/C=C/C(O[C@H]2O[C@H](C)[C@@H](O)[C@H](N)[C@@H]2O)CC2O[C@](O)(CC(O)C(O)CCC(O)CC(O)CC(O)CC(=O)O[C@H]1C)CC(O)C2C(=O)O (stereo partly shown) [nystatin]
decrease in the number of viable cells (colony forming units), factor versus control cells: 10^4
